Read-outs that look alike come from different tables or passages of the source. One block for each compound: values may come before it.
Biological target: T1, BRM (Homo sapiens, UniProt P51531)
T1 construct: In-Cell Western Screen of BRM Degradation in SW1573 Cells; endogenous in cells; host or cells: SW1573
Assay: In-cell Western screen of BRM degradation in SW1573 cells (Dmax and DC50)
Assay type: cell-based
Method: In-Cell Western Screen of BRM Degradation in SW1573 Cells
To assess BRM degradation (Dmax and DC50), cells were seeded at 8000/well in 96-well black/clear-bottom plates in 180 μL DMEM growth media (containing 1% pen-strep, 1% HEPES and 10% FBS) per well. Plates were incubated overnight to allow adhesion. The next morning cells were treated by adding 20 μL of 10× compound (1% DMSO) to appropriate wells and returned to incubator for overnight (18-20 hours). The final DMSO concentration was 0.1%.
For processing, the plates were removed from incubator, the media was removed, and immediately 200 μL of cold (4° C.) DPBS was added to all wells. DPBS was then removed, and 50 μL of 4% paraformaldehyde (PFA) in DPBS (4° C.) was added to all wells, and the plates were incubated at room temperature for 20 minutes. PFA was then removed, and 200 μL of TBS-T containing 0.5% Triton X-100 was added to all wells, and the plates were incubated at room temperature for 30 minutes. TBS-T containing 0.5% Triton X-100 was then removed, and 50 μL of Li-Cor blocking solution was added, and the plates were incubated at room temperature for a minimum of one hour.
The next day plates were washed three times with TBS-T, 200 μL per well. Fifty (50) μL of secondary antibody cocktail in LI-COR blocking solution (anti-rabbit_800 nm and anti-mouse_680 nm) was added to all wells (diluted 1:5000). The plates were incubated at room temperature for at least one hour while protected from light. The plates were washed twice with TBS-T, 200 μL per well.
To read each plate TBS-T was removed, and each plate was inverted tapped on a paper towel. The plates were read on the LI-COR Odyssey with default intensity settings of 5.0 for both channels. LI-COR images were analyzed with the in-cell Western feature of Image Studio Lite.

[1] = BRM degradation, SW1573 cells, when tested at the top concentration of between 0.3 and 10 μM, read-out: Dmax (%) (% degraded)
[2] = BRM degradation, SW1573 cells, read-out: DC50
[3] = BRM degradation, SW1573 cells, tested at the top concentration of between 0.3 and 10 μM, read-out: Dmax (%) (% degraded)

T1 sequence (P51531 whole entry): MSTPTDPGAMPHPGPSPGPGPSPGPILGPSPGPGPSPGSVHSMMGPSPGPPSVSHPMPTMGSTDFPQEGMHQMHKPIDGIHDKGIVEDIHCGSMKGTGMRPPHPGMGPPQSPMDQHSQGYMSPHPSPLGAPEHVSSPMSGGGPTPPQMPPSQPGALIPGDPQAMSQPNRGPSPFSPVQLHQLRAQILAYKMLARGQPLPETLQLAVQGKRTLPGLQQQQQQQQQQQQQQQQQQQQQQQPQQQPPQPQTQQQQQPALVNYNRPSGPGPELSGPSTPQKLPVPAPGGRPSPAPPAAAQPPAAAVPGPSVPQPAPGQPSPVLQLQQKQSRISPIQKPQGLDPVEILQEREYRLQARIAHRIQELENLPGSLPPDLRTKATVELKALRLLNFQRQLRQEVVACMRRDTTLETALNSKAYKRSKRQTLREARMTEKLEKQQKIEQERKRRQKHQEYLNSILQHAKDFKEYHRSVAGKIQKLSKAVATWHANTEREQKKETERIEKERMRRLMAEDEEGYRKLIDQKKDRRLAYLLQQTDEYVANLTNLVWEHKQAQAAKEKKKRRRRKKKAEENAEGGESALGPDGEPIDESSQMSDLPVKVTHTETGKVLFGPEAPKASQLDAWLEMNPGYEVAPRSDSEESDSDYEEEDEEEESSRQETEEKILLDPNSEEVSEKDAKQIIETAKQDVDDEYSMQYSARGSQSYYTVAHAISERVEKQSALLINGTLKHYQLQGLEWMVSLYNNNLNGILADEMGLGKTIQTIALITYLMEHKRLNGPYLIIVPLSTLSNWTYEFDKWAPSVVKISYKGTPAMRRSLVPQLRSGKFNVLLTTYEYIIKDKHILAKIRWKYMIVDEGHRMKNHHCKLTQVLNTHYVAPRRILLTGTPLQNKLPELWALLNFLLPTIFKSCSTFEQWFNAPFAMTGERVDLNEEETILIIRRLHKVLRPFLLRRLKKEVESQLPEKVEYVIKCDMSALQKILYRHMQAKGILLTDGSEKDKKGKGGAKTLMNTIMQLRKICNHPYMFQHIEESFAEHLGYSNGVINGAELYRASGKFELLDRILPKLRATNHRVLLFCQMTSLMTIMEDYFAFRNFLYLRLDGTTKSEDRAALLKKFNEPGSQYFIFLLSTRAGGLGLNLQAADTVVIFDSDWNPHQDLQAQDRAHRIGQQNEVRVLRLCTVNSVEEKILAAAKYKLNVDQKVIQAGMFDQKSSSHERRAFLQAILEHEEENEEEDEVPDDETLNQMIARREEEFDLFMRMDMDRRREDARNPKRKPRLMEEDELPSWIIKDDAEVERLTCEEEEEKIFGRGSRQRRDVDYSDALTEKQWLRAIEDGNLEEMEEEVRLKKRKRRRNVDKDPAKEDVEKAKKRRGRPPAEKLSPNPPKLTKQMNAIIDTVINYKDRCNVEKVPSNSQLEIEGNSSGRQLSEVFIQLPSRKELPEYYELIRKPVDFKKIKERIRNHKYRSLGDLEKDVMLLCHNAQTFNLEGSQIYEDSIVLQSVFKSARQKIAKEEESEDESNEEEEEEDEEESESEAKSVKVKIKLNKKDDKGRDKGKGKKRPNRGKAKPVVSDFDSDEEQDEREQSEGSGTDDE

- Dmax [1]: < 50%
Compound: Cc1ncsc1-c1ccc(CNC(=O)[C@@H]2C[C@@H](O)CN2C(=O)[C@H](C(C)C)N2Cc3ccccc3C2=O)c(OCCOCCOCCn2cc(-c3cc(-c4ccccc4O)nnc3N)cn2)c1 [compound 21, (2S,4R)-N-(2-(2-(2-(2-(4-(3-amino-6-(2-hydroxyphenyl)pyridazin-4-yl)-1H-pyrazol-1-yl)ethoxy)ethoxy)ethoxy)-4-(4-methylthiazol-5-yl)benzyl)-4-hydroxy-1-((S)-3-methyl-2-(1-oxoisoindolin-2-yl)butanoyl)pyrrolidine-2-carboxamide]

Compound: Cc1ncsc1-c1ccc([C@H](C)NC(=O)[C@@H]2C[C@@H](O)CN2C(=O)[C@@H](c2cc(N3CCC(CN4CCN(C[C@H]5C[C@H](Oc6cc(N7C8CCC7CN(c7cc(-c9ccccc9O)nnc7N)C8)ccn6)C5)C(C)C4C)CC3)no2)C(C)C)cc1 (stereo partly drawn) [compound 705, (2S,4R)-1-((2R)-2-(3-(4-((4-(((1r,3r)-3-((4-(3-(3-amino-6-(2-hydroxyphenyl)pyridazin-4-yl)-3,8-diazabicyclo[3.2.1]octan-8-yl)pyridin-2-yl)oxy)cyclobutyl)methyl)-2,3-dimethylpiperazin-1-yl)methyl)piperidin-1-yl)isoxazol-5-yl)-3-methylbutanoyl)-4-hydroxy-N-((S)-1-(4-(4-methylthiazol-5-yl)phenyl)ethyl)pyrrolidine-2-carboxamide]
- DC50 [2]: < 2.5 nM
- Dmax (BRM degradation, SW1573 cells, read-out: Dmax (% degraded)): > 75%

Compound: Cc1ncsc1-c1ccc(CNC(=O)[C@@H]2C[C@@H](O)CN2C(=O)[C@@H](NC(=O)COCCOCCOCCOc2cc(N3C4CCC3CN(c3cc(-c5ccccc5O)nnc3N)C4)ccn2)C(C)(C)C)cc1 [compound 6, (2S,4R)-1-((2S)-14-((4-(3-(3-amino-6-(2-hydroxyphenyl)pyridazin-4-yl)-3,8-diazabicyclo[2.1]octan-8-yl)pyridin-2-yl)oxy)-2-(tert-butyl)-4-oxo-6,9,12-trioxa-3-azatetradecanoyl)-4-hydroxy-N-(4-(4-methylthiazol-5-yl)benzyl)pyrrolidine-2-carboxamide]
- DC50 [2]: 10 to 30 nM
- Dmax [1]: > 75%

- DC50 (BRM degradation, SW1573 cells, Table 2D, read-out: *DC50): > 30 nM
Compound: Cc1ncsc1-c1ccc([C@H](C)NC(=O)[C@@H]2C[C@@H](O)CN2C(=O)[C@H](c2cc(OCC[C@H]3CCN(C[C@H]4C[C@H](Oc5cc(N6C7CCC6CN(c6cc(-c8ccccc8O)nnc6N)C7)ccn5)C4)[C@@H](C)C3)no2)C(C)C)cc1 (racemic) [compound 547, (2S,4R)-1-((2S)-2-(3-(2-((2S,4S)-1-(((1r,3S)-3-((4-(3-(3-amino-6-(2-hydroxyphenyl)pyridazin-4-yl)-3,8-diazabicyclo[3.2.1]octan-8-yl)pyridin-2-yl)oxy)cyclobutyl)methyl)-2-methylpiperidin-4-yl)ethoxy)isoxazol-5-yl)-3-methylbutanoyl)-4-hydroxy-N-((S)-1-(4-(4-methylthiazol-5-yl)phenyl)ethyl)pyrrolidine-2-carboxamide]

Compound: Cc1ncoc1-c1ccc([C@H](C)NC(=O)[C@@H]2C[C@@H](O)CN2C(=O)[C@H](c2cc(OCCN3CCC(O[C@H]4C[C@H](Oc5cc(N6C7CCC6CN(c6cc(-c8ccccc8O)nnc6N)C7)ccn5)C4)CC3)no2)C(C)C)cc1 [compound 212, (2S,4R)-1-((2S)-2-(3-(2-(4-((1r,3S)-3-((4-(3-(3-amino-6-(2-hydroxyphenyl)pyridazin-4-yl)-3,8-diazabicyclo[3.2.1]octan-8-yl)pyridin-2-yl)oxy)cyclobutoxy)piperidin-1-yl)ethoxy)isoxazol-5-yl)-3-methylbutanoyl)-4-hydroxy-N-((S)-1-(4-(4-methyloxazol-5-yl)phenyl)ethyl)pyrrolidine-2-carboxamide]
- DC50 [2]: > 30 nM
- Dmax [3]: > 75%

Compound: Cc1ncsc1-c1ccc([C@H](NC(=O)[C@@H]2C[C@@H](O)CN2C(=O)[C@@H](c2cc(OCCN3CCC(O[C@H]4C[C@H](Oc5cc(N6C7CCC6CN(c6cc(-c8ccccc8O)nnc6N)C7)ccn5)C4)CC3)no2)C(C)C)C(F)F)cn1 [compound 243, (2S,4R)-1-((2R)-2-(3-(2-(4-((1r,3R)-3-((4-(3-(3-amino-6-(2-hydroxyphenyl)pyridazin-4-yl)-3,8-diazabicyclo[3.2.1]octan-8-yl)pyridin-2-yl)oxy)cyclobutoxy)piperidin-1-yl)ethoxy)isoxazol-5-yl)-3-methylbutanoyl)-N-((S)-2,2-difluoro-1-(6-(4-methylthiazol-5-yl)pyridin-3-yl)ethyl)-4-hydroxypyrrolidine-2-carboxamide]
- DC50 [2]: < 2.5 nM
- Dmax [3]: > 75%

Compound: Cc1ncsc1-c1ccc([C@H](C)NC(=O)[C@@H]2C[C@@H](O)CN2C(=O)[C@H](c2cc(CCCN3CCC(O[C@H]4C[C@H](Oc5cc(N6C7CCC6CN(c6cc(-c8ccccc8O)nnc6N)C7)ccn5)C4)CC3)no2)C(C)C)cc1 [compound 190, (2S,4R)-1-((2S)-2-(3-(3-(4-((1r,3S)-3-((4-(3-(3-amino-6-(2-hydroxyphenyl)pyridazin-4-yl)-3,8-diazabicyclo[3.2.1]octan-8-yl)pyridin-2-yl)oxy)cyclobutoxy)piperidin-1-yl)propyl)isoxazol-5-yl)-3-methylbutanoyl)-4-hydroxy-N-((S)-1-(4-(4-methylthiazol-5-yl)phenyl)ethyl)pyrrolidine-2-carboxamide]
- DC50 [2]: > 30 nM

Compound: Cc1ncsc1-c1ccc([C@H](C)NC(=O)[C@@H]2C[C@@H](O)CN2C(=O)[C@@H](c2cc(N3CCC4(CC3)CC(CN3CCC(O[C@H]5C[C@H](Oc6cc(N7C8CCC7CN(c7cc(-c9ccccc9O)nnc7N)C8)ccn6)C5)CC3)C4)no2)C(C)C)cc1 [compound 650, (2S,4R)-1-((2R)-2-(3-(2-((4-((1r,3r)-3-((4-(3-(3-amino-6-(2-hydroxyphenyl)pyridazin-4-yl)-3,8-diazabicyclo[3.2.1]octan-8-yl)pyridin-2-yl)oxy)cyclobutoxy)piperidin-1-yl)methyl)-7-azaspiro[3.5]nonan-7-yl)isoxazol-5-yl)-3-methylbutanoyl)-4-hydroxy-N-((S)-1-(4-(4-methylthiazol-5-yl)phenyl)ethyl)pyrrolidine-2-carboxamide]
- DC50 [2]: > 30 nM

Compound: Cc1ncsc1-c1ccc([C@H](C)NC(=O)[C@@H]2C[C@@H](O)CN2C(=O)[C@H](c2cc(OCCN3CCC(O[C@H]4C[C@H](Oc5cc(N6C7CCC6CN(c6cc(-c8ccccc8O)nnc6N)C7)ccn5)C4)CC3)no2)C(C)C)nn1 [compound 503, (2S,4R)-1-((2S)-2-(3-(2-(4-((1r,3S)-3-((4-(3-(3-amino-6-(2-hydroxyphenyl)pyridazin-4-yl)-3,8-diazabicyclo[3.2.1]octan-8-yl)pyridin-2-yl)oxy)cyclobutoxy)piperidin-1-yl)ethoxy)isoxazol-5-yl)-3-methylbutanoyl)-4-hydroxy-N-((S)-1-(6-(4-methylthiazol-5-yl)pyridazin-3-yl)ethyl)pyrrolidine-2-carboxamide]
- DC50 (BRM degradation, read-out: BRM DC50): > 30 nM

Compound: Cc1cnc(C)n1-c1ccc([C@H](C)NC(=O)[C@@H]2C[C@@H](O)CN2C(=O)[C@H](c2cc(OCCN3CCC(O[C@H]4C[C@H](Oc5cc(N6C7CCC6CN(c6cc(-c8ccccc8O)nnc6N)C7)ccn5)C4)CC3)no2)C(C)C)cc1 [compound 375, (2S,4R)-1-((2S)-2-(3-(2-(4-((1r,3S)-3-((4-(3-(3-amino-6-(2-hydroxyphenyl)pyridazin-4-yl)-3,8-diazabicyclo[3.2.1]octan-8-yl)pyridin-2-yl)oxy)cyclobutoxy)piperidin-1-yl)ethoxy)isoxazol-5-yl)-3-methylbutanoyl)-N-((S)-1-(4-(2,5-dimethyl-1H-imidazol-1-yl)phenyl)ethyl)-4-hydroxypyrrolidine-2-carboxamide]
- DC50 (target protein degradation, read-out: BRM DC50): > 30 nM

Compound: COCc1ncsc1-c1ccc([C@H](C)NC(=O)[C@@H]2C[C@@H](O)CN2C(=O)C(c2cc(OCCN3CCN(CCOc4cc(N5C6CCC5CN(c5cc(-c7ccccc7O)nnc5N)C6)ccn4)CC3)no2)C(C)C)cc1 (stereo partly drawn) [compound 169, (2S,4R)-1-(2-(3-(2-(4-(2-((4-(3-(3-amino-6-(2-hydroxyphenyl)pyridazin-4-yl)-3,8-diazabicyclo[3.2.1]octan-8-yl)pyridin-2-yl)oxy)ethyl)piperazin-1-yl)ethoxy)isoxazol-5-yl)-3-methylbutanoyl)-4-hydroxy-N-((S)-1-(4-(4-(methoxymethyl)thiazol-5-yl)phenyl)ethyl)pyrrolidine-2-carboxamide]
- DC50 [2]: < 2.5 nM
- Dmax [3]: > 75%
